Source: patent US9828389B2, “Tetrazolinone compounds and their use as pesticides” (SUMITOMO CHEMICAL COMPANY, LIMITED, priority 2012, dated 2017)

Tests used:
[1] = system: cotton aphid (Aphis gossypii); assay: Cotton aphid control test, spray on infested cucumber; assay type: in vivo; conditions: 144 h, 20 mL sprayed on cucumber with 30 aphids, counted after 6 days
Description: Cucumber (cv; Sagami-hanjiro-fushinari) was grown in a polyethylene cup until the first true leaf was developed. Thirty (30) heads of cotton aphid (Aphis gossypii) (including the adults and the larvae) was released onto the leaves of the […] and next day, the above-mentioned testing drug dilutions 20 mL were sprayed. […] Control value (%)={1−(Cb×Tai)/(Cai×Tb)}×100 wherein the symbols in the formula represent the following descriptions. Cb: Number of the insects before treatment in untreated area; Cai: Number of the insects at the time of the observation in untreated area; Tb: Number of the insects before treatment in treated area; Tai: Number of the insects at the time of the observation in treated area;

[2] = system: wheat rust fungi (Puccinia recondita); assay: Wheat rust control test, foliar spray on wheat; assay type: in vivo; conditions: Comparative Test Example: wheat (cv; Shirogane), foliar spray 500 ppm, inoculated after 5 days, observed after 1+8 days
Description: The spores of wheat rust fungi (Puccinia recondita) were sprinkling-inoculated. After inoculation, the plants were placed under a dark and humid condition at 23° C. for 1 day and were then cultivated at 20° C. under lighting for 8 days and a lesion area was observed.

Cc1cc(C)n(-c2ccc(OCc3c(Cl)cccc3-n3nnn(C)c3=O)c(Cl)c2)n1 [Present compound 9, 1-{3-chloro-2-[2-chloro-4-(3,5-dimethyl-pyrazol-1-yl)-phenoxymethyl]-phenyl}-4-methyl-1,4-dihydrotetrazole-5-one]
pest or weed control at 500 ppm [1]: ≥ 90%

Cc1cc(C)n(-c2ccc(OCc3c(Cl)cccc3-n3nnn(C)c3=O)cc2Cl)n1 [Present compound 11, 1-{3-chloro-2-[3-chloro-4-(3,5-dimethyl-pyrazol-1-yl)-phenoxymethyl]-phenyl}-4-methyl-1,4-dihydrotetrazole-5-one]
pest or weed control at 500 ppm [1]: ≥ 90%

Cc1ccn(-c2ccc(OCc3c(C)cccc3-n3nnn(C)c3=O)c(C)c2)n1 [Present compound 22, 1-{3-methyl-2-[2-methyl-4-(3-methyl-pyrazol-1-yl)-phenoxymethyl]-phenyl}-4-methyl-1,4-dihydrotetrazole-5-one]
pest or weed control at 500 ppm [1]: ≥ 90%

CCc1cccc(-n2nnn(C)c2=O)c1COc1ccc(-n2nc(C)cc2C)cc1C [Present compound 50, 1-{3-ethyl-2-[2-methyl-4-(3,5-dimethyl-pyrazol-1-yl)-phenoxymethyl]-phenyl}-4-methyl-1,4-dihydrotetrazole-5-one]
pest or weed control at 500 ppm [1]: ≥ 90%

CCc1cccc(-n2nnn(C)c2=O)c1COc1ccc(-n2cc(C)c(C)n2)cc1C [Present compound 53, 1-{3-ethyl-2-[2-methyl-4-(3,4-dimethyl-pyrazol-1-yl)-phenoxymethyl]-phenyl}-4-methyl-1,4-dihydrotetrazole-5-one]
pest or weed control at 500 ppm [1]: ≥ 90%

CCc1cccc(-n2nnn(C)c2=O)c1COc1ccc(-c2cc(C)n(C)n2)cc1C [Present compound 59, 1-{3-ethyl-2-[2-methyl-4-(1,5-dimethyl-1H-pyrazol-3-yl)-phenoxymethyl]-phenyl}-4-methyl-1,4-dihydrotetrazole-5-one]
pest or weed control at 500 ppm [1]: ≥ 90%

COc1cccc(-n2nnn(C)c2=O)c1COc1ccc(-c2cnn(C)c2)cc1C [Present compound 68, 1-{3-methoxy-2-[2-methyl-4-(1-methyl-1H-pyrazole-4-yl)-phenoxymethyl]-phenyl}-4-methyl-1,4-dihydrotetrazole-5-one]
pest or weed control at 500 ppm [1]: ≥ 90%

COc1cccc(-n2nnn(C)c2=O)c1COc1ccc(-c2cnn(CC(C)C)c2)cc1C [Present compound 77, 1-{3-methoxy-2-[2-methyl-4-(1-isobutyl-1H-pyrazole-4-yl)-phenoxymethyl]-phenyl}-4-methyl-1,4-dihydrotetrazole-5-one]
pest or weed control at 500 ppm [1]: ≥ 90%

CCn1ccc(-c2ccc(OCc3c(OC)cccc3-n3nnn(C)c3=O)c(C)c2)n1 [Present compound 87, 1-{3-methoxy-2-[2-methyl-4-(1-ethyl-1H-pyrazol-3-yl)-phenoxymethyl]-phenyl}-4-methyl-1,4-dihydrotetrazole-5-one]
pest or weed control at 500 ppm [1]: ≥ 90%

COc1cccc(-n2nnn(C)c2=O)c1COc1ccc(-c2ccn(S(C)(=O)=O)n2)cc1C [Present compound 112, 1-{3-methoxy-2-[2-methyl-4-(1-methanesulfonyl-1H-pyrazol-3-yl)-phenoxymethyl]-phenyl}-4-methyl-1,4-dihydrotetrazole-5-one]
pest or weed control at 500 ppm [1]: ≥ 90%

CCOc1cccc(-n2nnn(C)c2=O)c1COc1ccc(-n2cc(C)c(C)n2)cc1C [Present compound 129, 1-{3-ethoxy-2-[2-methyl-4-(3,4-dimethyl-pyrazol-1-yl)-phenoxymethyl]-phenyl}-4-methyl-1,4-dihydrotetrazole-5-one]
pest or weed control at 500 ppm [1]: ≥ 90%

COc1cccc(-n2nnn(C)c2=O)c1COc1ccc(-c2nn(C)cc2C)cc1Cl [Present compound 154, 1-{3-methoxy-2-[2-chloro-4-(1,4-dimethyl-1H-pyrazol-3-yl)-phenoxymethyl]-phenyl}-4-methyl-1,4-dihydrotetrazole-5-one]
pest or weed control at 500 ppm [1]: ≥ 90%

CCc1cccc(-n2nnn(C)c2=O)c1COc1ccc(-c2nn(C)c(Cl)c2C)cc1C [Present compound 206, 1-{3-ethyl-2-[2-methyl-4-(5-chloro-1,4-dimethyl-1H-pyrazol-3-yl)-phenoxymethyl]-phenyl}-4-methyl-1,4-dihydrotetrazole-5-one]
pest or weed control at 500 ppm [1]: ≥ 90%

Cc1cc(-c2nn(C)c(Cl)c2C)ccc1OCc1c(-n2nnn(C)c2=O)cccc1C(F)(F)F [Present compound 209, 1-{2-[2-methyl-4-(5-chloro-1,4-dimethyl-1H-pyrazol-3-yl)-phenoxymethyl]-3-trifluoromethyl-phenyl}-4-methyl-, 4-dihydrotetrazole-5-one]
pest or weed control at 500 ppm [1]: ≥ 90%

CCOc1cccc(-n2nnn(C)c2=O)c1COc1ccc(-c2nn(C)c(Cl)c2C)cc1C [Present compound 210, 1-{3-ethoxy-2-[2-methyl-4-(5-chloro-1,4-dimethyl-1H-pyrazol-3-yl)-phenoxymethyl]-phenyl}-4-methyl-1,4-dihydrotetrazole-5-one]
pest or weed control at 500 ppm [1]: ≥ 90%

Cc1cc(C)n(-c2ccc(OCc3ccccc3-n3nnn(C)c3=O)c(Cl)c2)n1 [control compound, 1-{2-{2-chloro-4-(3,5-dimethyl-pyrazole-1-yl)-phenoxymethyl}-phenyl}-4-methyl-1,4-dihydrotetrazole-5-one]
lesion area compared to the lesion area in untreated plants [2]: ≥ 70%
